The text below walks through data of EP1140904B1, “FARNESYL PROTEIN TRANSFERASE INHIBITORS” (SCHERING CORPORATION, priority 1998, dated 2000).

pIC50: −log10 of the molar value. Read-outs that look alike come from different tables or passages of the source.

The subject of one test is Human tumor cells. In words: Soft Agar Assay (anchorage-independent growth, colony count after MTT staining). It counts as cell-based. The procedure: Anchorage-independent growth is a characteristic of tumorigenic cell lines. Human tumor cells can be suspended in growth medium containing 0.3% agarose and an indicated concentration of a farnesyl transferase inhibitor. The solution can be overlayed onto growth medium solidified with 0.6% agarose containing the same concentration of farnesyl transferase inhibitor as the top layer. After the top layer is solidified, plates can be incubated for 10-16 days at 37°C under 5% CO2 to allow colony outgrowth. After incubation, the colonies can be stained by overlaying the agar with a solution of MTT (3-[4,5-dimethyl-thiazol-2-yl]-2,5-diphenyltetrazolium bromide, Thiazolyl blue) (1 mg/mL in PBS). Colonies can be counted and the IC50's can be determined.

The target in test [1] is farnesyl protein transferase (Homo sapiens, UniProt P49354+P49356). In words: FPT IC50 (inhibition of farnesyl protein transferase, in vitro enzyme assay). Format: biochemical. The following applies: procedures of WO 95/10516. As to the method: FPT IC50 (inhibition of farnesyl protein transferase, in vitro enzyme assay) was determined following the assay procedures described in WO 95/10516, published April 20, 1995. GGPT IC50 (inhibition of geranylgeranyl protein transferase, in vitro enzyme assay), Cell Mat Assay, COS Cell IC50 (Cell-Based Assay), and anti-tumor activity (in vivo anti-tumor studies) could be determined by the assay procedures described in WO 95/10516. The disclosure of WO 95/10516 is incorporated herein by reference thereto.

[2] abbreviates: colony outgrowth 10-16 days at 37°C under 5% CO2, read-out: Soft Agar IC50.

Broadly, the pIC50 is the IC50 on a negative log10 scale, so that one unit is a factor of ten. On to `CC(C)(C)OC(=O)N1CCN(C2c3ccc(Cl)cc3CCc3cc(Br)cnc32)CC1C(=O)N1CCCC(Cn2ccnc2)C1` (stereo not drawn) [Example 10], for which the negative logarithm of the IC50 (pIC50) in the test on Human tumor cells (setting [2]) is 7.52 to 9.30.
As to `CC(C)OC(=O)N1CCN(C2c3ccc(Cl)cc3CCc3cc(Br)cnc32)CC1C(=O)N1CCCC(Cn2ccnc2)C1` (stereo not drawn) [Example 14], the pIC50 in the test on Human tumor cells (setting [2]) is 7.52 to 9.30.
Same read-out and setting: as for `O=C(C1CN(C2c3ccc(Cl)cc3CCc3cc(Br)cnc32)CCN1C(=O)OC1CCCCC1)N1CCCC(Cn2ccnc2)C1` (stereo not drawn) [Example 15], the figure is 7.52 to 9.30; as for `CC(C)(C)NC(=O)N1CCN(C2c3ccc(Cl)cc3CCc3cc(Br)cnc32)CC1C(=O)N1CCCC(Cn2ccnc2)C1` (stereo not drawn) [Example 16], 7.52 to 9.30; as for `CC(C)NC(=O)N1CCN([C@@H]2c3ccc(Cl)cc3CCc3cc(Br)cnc32)C[C@@H]1C(=O)N1CCC[C@@H](Cn2ccnc2)C1` [Example 17], 7.52 to 9.30.
With `CC(C)(C)NC(=O)N1CCN([C@@H]2c3ccc(Cl)cc3CCc3cc(Br)cnc32)C[C@@H]1C(=O)N1CCC[C@H](Cn2ccnc2)C1` [Example 18], the negative-log IC50 (pIC50) in the test on Human tumor cells (setting [2]) is 7.52 to 9.30.
For `CC(C)OC(=O)N1CCN([C@@H]2c3ccc(Cl)cc3CCc3cc(Br)cnc32)C[C@@H]1C(=O)N1CCC[C@H](Cn2ccnc2)C1` [Example 19], the pIC50 in the test with Human tumor cells (setting [2]) was 7.52 to 9.30.
Take `CC(C)(C)OC(=O)N1CCN(C2c3ccc(Cl)cc3CCc3cc(Br)cnc32)C[C@@H]1C(=O)N1CCCCC1CCn1ccnc1` (stereo partly drawn) [Example 74, 1,1-DIMETHYLETHYL-4-(3-BROMO-8-CHLORO-6,11-DIHYDRO-5H-BENZO[5,6]CYCLOHEPTA[1,2-b]PYRIDIN-11-YL)-2(R)-[[2-[2-(1H-IMIDAZOL-1-YL)ETHYL]-1-PIPERIDINYL]CARBONYL]-1-PIPERAZINECARBOXYLATE]: the pIC50 in test [1] was 8.57 to 10.40; with Human tumor cells (read-out: Soft Agar IC50), 7.52 to 9.30.
On the same counts, the results for `CC(C)(C)OC(=O)N1CCN([C@H]2c3ccc(Cl)cc3CCc3cc(Br)cnc32)C[C@@H]1C(=O)N1CCCCC1CCn1ccnc1` (stereo partly drawn) [Example 138, 1,1-DIMETHYLETHYL 4-(3-BROMO-8-CHLORO-6,11-DIHYDRO-5H-BENZO[5,6]CYCLOHEPTA[1,2-b]PYRIDIN-11(S)-YL)-2(R)-[[2-[2-(1H-IMIDAZOL-1-YL)ETHYL]-1-PIPERIDINYL]CARBONYL]-1-PIPERAZINECARBOXYLATE] are 8.57 to 10.40 and 7.52 to 9.30.
Consider `CC(C)(C)OC(=O)N1CCN(C2c3ccc(Cl)cc3CCc3cc(Br)cnc32)C[C@@H]1C(=O)N1CCCCC1CCCn1ccnc1` (stereo partly drawn) [Example 145, 1,1-DIMETHYLETHYL 4-(3-BROMO-8-CHLORO-6,11-DIHYDRO-5H-BENZO[5,6]CYCLOHEPTA[1,2-b]PYRIDIN-11-YL)-2(R)-[[2-[3-(1H-IMIDAZOL-1-YL)PROPYL]-1-PIPERIDINYL]CARBONYL]-1-PIPERAZINECARBOXYLATE], for which the negative logarithm of the IC50 (pIC50) in test [1] was 8.57 to 10.40; with Human tumor cells (read-out: Soft Agar IC50) it was 7.52 to 9.30.
As to `Cc1cn(CC2CCCN(C(=O)C3CN(C4c5ccc(Cl)cc5CCc5cc(Br)cnc54)CCN3C(=O)Cc3ccc(F)cc3)C2)cn1` (stereo not drawn) [Example 197], the figures for the pIC50 (in test [1]; with Human tumor cells (setting [2])) were 8.57 to 10.40 and 7.52 to 10.30, respectively.
On the same counts, the results for `Cc1cn(CC2CCCN(C(=O)C3CN(C4c5ccc(Cl)cc5CCc5ccc[n+]([O-])c54)CCN3C(=O)OC3CCCCC3)C2)cn1` (stereo not drawn) [Example 387] are 8.57 to 10.40 and 7.52 to 10.30.
On the same counts, the results for `Cc1cn(CC2CCCN(C(=O)C3CN(C4c5ccc(Cl)cc5CCc5cccnc54)CCN3C(=O)OCC(C)(C)C)C2)cn1` (stereo not drawn) [Example 411] are 8.57 to 10.40 and 7.52 to 10.30.
On the same counts, the results for `Cc1cn(C[C@@H]2CCCN(C(=O)[C@H]3CN(C4c5ccccc5CCc5ccccc54)CCN3C(=O)OC3CCCCC3)C2)cn1` [Example 414] are 8.57 to 10.40 and 7.52 to 10.30.
